Experimental findings from ChEMBL document CHEMBL1201862, “PubChem BioAssay data set” (2004) are described below.

The structures appear in SMILES notation.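 Following 48 hours of exposure in 96-well plates, responses at five concentrations were used to interpolate endpoints linearly. GI50: concentration for 50% inhibition of growth.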 Calls of active or inactive are those of the source. No stated cut-off is given here; in the data, active = GI50 up to about 1.1 µM and inactive = higher.

Test systems include RXF 393; M14; NCI-H460; NCI-H23; CAKI-1; SK-MEL-2; K562; OVCAR-3; UO-31; SF-539; HCT-15; RPMI-8226; A498; HOP-92; EKVX.
Test in all cases: inhibition of tumour cell growth, NCI panel, 48 h

`CCOC(=O)[C@H]1Nc2ccc([N+](=O)[O-])cc2C2c3ccccc3CC21` (some centres undefined): the GI50 was 4.53 µM (inactive) in the test on RXF 393; 15.2 µM (inactive) in the test with M14; 18.8 µM (inactive) in the test on NCI-H460; 15.3 µM (inactive) in the test with NCI-H23; 27.8 µM (inactive) in the test with CAKI-1; 31.6 µM (inactive) with SK-MEL-2. For the same compound, the GI50 with K562 is 3.89 µM (inactive); with OVCAR-3, 9.84 µM (inactive); with UO-31 it was 15 µM (inactive); in the test with SF-539, 17.3 µM (inactive); in the test with HCT-15, 15.3 µM; in the test with RPMI-8226 it was 16.9 µM (inactive).
For `COC(=O)CCCCCOS(=O)(=O)c1ccc(C)cc1`, the GI50 with RXF 393, in the test on A498, in the test with M14, in the test with NCI-H460, in the test on NCI-H23 and in the test on SK-MEL-2 was > 100 µM (inactive) in each case. The GI50 is > 100 µM (inactive) in the test with K562; > 100 µM (inactive) in the test with OVCAR-3; > 100 µM (inactive) in the test with UO-31; > 100 µM (inactive) in the test on HOP-92; > 100 µM (inactive) in the test with SF-539; over 100 µM in the test on HCT-15. Also, the GI50 in the test with EKVX is > 100 µM (inactive).
As to `O=C(NC12CC3CC(CC(C3)C1)C2)C(=O)c1c[nH]c2ccccc12`, the GI50 was 14 µM (inactive) in the test with M14; 12.1 µM (inactive) in the test with NCI-H460; 14.7 µM (inactive) in the test with NCI-H23; 17.9 µM (inactive) in the test with SK-MEL-2; 5.77 µM (inactive) in the test with K562; 17 µM (inactive) in the test on OVCAR-3. Besides, the GI50 was 20 µM (inactive) in the test with UO-31; 15.1 µM (inactive) in the test with HOP-92; 13.6 µM (inactive) in the test on SF-539; 12.1 µM in the test with HCT-15; 17.6 µM (inactive) in the test with EKVX; 12.2 µM (inactive) in the test on RPMI-8226.
On to `Cc1cc2occ(C)c(=O)c2c2c1OC(C)(C)S2`, for which the GI50 with RXF 393 was 88.1 µM (inactive); with M14, > 100 µM (inactive); in the test with NCI-H460, > 100 µM (inactive); in the test on NCI-H23, > 100 µM (inactive); with SK-MEL-2, > 100 µM (inactive); in the test with K562, 51.9 µM (inactive). Besides, the GI50 is > 100 µM (inactive) in the test on OVCAR-3; > 100 µM (inactive) with UO-31; 55.3 µM (inactive) with HOP-92; > 100 µM (inactive) in the test with SF-539; over 100 µM in the test on HCT-15; > 100 µM (inactive) in the test on EKVX. Further, the GI50 in the test with RPMI-8226 is 82.4 µM (inactive).
Regarding `CCOC(=O)NC(=O)c1cn(CC(=O)NCC(=O)NCC(=O)NCCCN2CCN(CCCNC(=O)CNC(=O)CNC(=O)Cn3cc(C(=O)NC(=O)OCC)c(=O)[nH]c3=O)CC2)c(=O)[nH]c1=O`, the GI50 in the test on A498, in the test with M14, in the test on NCI-H460, in the test on NCI-H23, in the test with CAKI-1 and in the test with SK-MEL-2 was > 100 µM (inactive) in each case. Also, the GI50 with K562 was > 100 µM (inactive); with OVCAR-3, > 100 µM (inactive); with UO-31, > 100 µM (inactive); in the test with HOP-92, > 100 µM (inactive); in the test on SF-539 it was > 100 µM (inactive); in the test on HCT-15 it was over 100 µM.
As for `Cc1cc(O)nc(NNC(C#N)c2c(O)ccc3ccccc23)n1` (centres undefined), the GI50 in the test on RXF 393 was 10.4 µM (inactive); in the test on M14, 2.51 µM (inactive); with NCI-H460 it was 2.89 µM (inactive); with NCI-H23, 3.56 µM (inactive); in the test with CAKI-1 it was 3.18 µM (inactive); with SK-MEL-2, 12.2 µM (inactive). Besides, the GI50 with K562 is 3.68 µM (inactive); in the test with OVCAR-3, 1.78 µM (inactive); in the test on UO-31, 1.73 µM (inactive); in the test with HOP-92 it was 19.1 µM (inactive); in the test with SF-539, 3.85 µM (inactive); in the test on HCT-15, 1.82 µM. In addition, in the test with RPMI-8226, the GI50 is 3.72 µM (inactive).
On to `O=C1CCC2(O)c3ccccc3C2Cc2ccccc21` (centres undefined), for which the GI50 in the test with RXF 393, in the test on NCI-H460, with NCI-H23, in the test on SK-MEL-2, with K562 and in the test with OVCAR-3 was > 100 µM (inactive) in each case. Also, the GI50 in the test on HOP-92 was 70.1 µM (inactive); with SF-539, > 100 µM (inactive); in the test with EKVX it was > 100 µM (inactive); with RPMI-8226 it was > 100 µM (inactive).
Consider `COc1cccc(NC(=O)CSc2nnc(Cc3ccccc3)o2)c1`, for which the GI50 with RXF 393, in the test with A498, in the test on M14, in the test on NCI-H460, in the test with NCI-H23 and in the test on CAKI-1 was > 100 µM (inactive) throughout. In addition, the GI50 was > 100 µM (inactive) in the test with SK-MEL-2; > 100 µM (inactive) with K562; > 100 µM (inactive) in the test on OVCAR-3; > 100 µM (inactive) with UO-31; > 100 µM (inactive) with SF-539; over 100 µM in the test on HCT-15. Further, the GI50 in the test on RPMI-8226 is > 100 µM (inactive).
In the case of `CCOC(=O)CC(NC(=O)c1nc[nH]c1[N+](=O)[O-])C(=O)OCC` (centres undefined), the GI50 in the test on A498 is 61.7 µM (inactive); in the test with M14 it was 67.8 µM (inactive); in the test with NCI-H460 it was 52 µM (inactive); in the test on NCI-H23, 22.6 µM (inactive); in the test on CAKI-1, 47 µM (inactive); with SK-MEL-2 it was 92.7 µM (inactive). The GI50 with K562 is 38.2 µM (inactive); in the test on OVCAR-3, 38.6 µM (inactive); in the test with UO-31, 77.6 µM (inactive); in the test with SF-539, 59.6 µM (inactive); in the test with HCT-15, 78.5 µM; in the test with EKVX it was 50.1 µM (inactive). Further, the GI50 in the test on RPMI-8226 was 29.2 µM (inactive).
In the case of `CCCCOP1(=O)CC(C)=C(Cl)C(C)(OC)C1` (centres undefined), the GI50 with RXF 393 was > 100 µM (inactive); with M14, > 100 µM (inactive); in the test on NCI-H460 it was > 100 µM (inactive); in the test on NCI-H23 it was > 100 µM (inactive); in the test on SK-MEL-2, 41 µM (inactive); with K562 it was 29.6 µM (inactive). Also, the GI50 with OVCAR-3 is > 100 µM (inactive); in the test on UO-31, > 100 µM (inactive); with HOP-92 it was 43.7 µM (inactive); in the test on SF-539, > 100 µM (inactive); in the test on HCT-15, over 100 µM; in the test with EKVX, > 100 µM (inactive).
`O=C1CCN2CCC(=O)c3c2c(cc2ccccc32)N1`: the GI50 was 44.7 µM (inactive) in the test on RXF 393; > 100 µM (inactive) in the test on A498; > 100 µM (inactive) in the test on M14; > 100 µM (inactive) in the test with NCI-H460; > 100 µM (inactive) in the test with CAKI-1; > 100 µM (inactive) in the test with SK-MEL-2. In addition, the GI50 is > 100 µM (inactive) in the test with K562; > 100 µM (inactive) with OVCAR-3; 75.5 µM (inactive) in the test on UO-31; > 100 µM (inactive) in the test on SF-539; over 100 µM in the test on HCT-15; > 100 µM (inactive) in the test with EKVX. Moreover, the GI50 in the test with RPMI-8226 was > 100 µM (inactive).
Take `CN/C(=N\C#N)N(Cc1ccccc1)Cc1ccccc1`: the GI50 in the test on A498, with M14, in the test on NCI-H460, in the test on NCI-H23, in the test with CAKI-1 and in the test on SK-MEL-2 was > 100 µM (inactive) each time. In addition, the GI50 with OVCAR-3 is > 100 µM (inactive); with UO-31, > 100 µM (inactive); with HOP-92 it was > 100 µM (inactive); in the test with SF-539, > 100 µM (inactive); with HCT-15 it was over 100 µM; in the test with EKVX it was > 100 µM (inactive). Besides, the GI50 in the test on RPMI-8226 is > 100 µM (inactive).
